# Results: US12558366B2, “Bacterial DNA gyrase inhibitors and methods of use thereof” (THE FLORIDA INTERNATIONAL UNIVERSITY BOARD OF TRUSTEES, priority 2021, dated 2026)
# Entries after “also recorded” stand apart in the source; their conditions may differ. Where two headings read alike, the source gives them in different places.
# Tests used:
# HepG2 = assay: Cytotoxicity in HepG2 cells; assay type: cell-based; settings: for cytotoxicity: HepG2, 200 μM; for IC50: highest concentration 200 μM
# Mtb = Mtb inhibition (antibacterial activity); assay type: cell-based, Mycobacterium tuberculosis; design: % Mtb inhibition: concentration or dose not given beside the values; settings: for % Mtb inhibition: Table 5
# J774 = assay: Cytotoxicity in J774 cells; assay type: cell-based; settings: for cytotoxicity: J774, 200 μM; for IC50: highest concentration 200 μM
# E. coli (ATCC 25922) = assay: Minimum inhibitory concentration, E. coli; assay type: cell-based; settings: for MIC: Escherichia coli, ATCC25922, read-out: Minimum Inhibitory Concentration E. coli
# Protocol: (§1) Antibacterial minimum inhibitory concentrations (MICs) were obtained from three independent experiments using broth microdilution methods in 96-well plates according to Clinical and Laboratory Standards Institute guidelines. Cells were culture from singles colonies in MHIIB medium for 24 h at 37° C. in agitation (200 RPM). The cultures were then diluted using the same media to reach an OD600 of 0.1. Then, 50 μL of the diluted cultures were added to the plates holding 50 μL of serially diluted compounds in MHIIB. The plates were incubated at 37° C. for 20 h. The starting inoculum was fixated to 10^5 colony-forming units per ml.
# E. coli imp = assay: microbe, parasite or virus in culture; assay type: cell-based; settings: for MIC: Escherichia coli, read-out: Minimum Inhibitory Concentration E. coli imp
# Protocol: as §1
# E. coli DNA gyrase [1] = target: T1, E. coli DNA gyrase (Escherichia coli, UniProt P0AES4+P0AES6); assay: SDFQ HTS assay of E. coli DNA gyrase (1536-well); assay type: biochemical; settings: read-out: inhibition activities against E. coli DNA gyrase
# T1 sequence (P0AES4 whole entry, one chain of several): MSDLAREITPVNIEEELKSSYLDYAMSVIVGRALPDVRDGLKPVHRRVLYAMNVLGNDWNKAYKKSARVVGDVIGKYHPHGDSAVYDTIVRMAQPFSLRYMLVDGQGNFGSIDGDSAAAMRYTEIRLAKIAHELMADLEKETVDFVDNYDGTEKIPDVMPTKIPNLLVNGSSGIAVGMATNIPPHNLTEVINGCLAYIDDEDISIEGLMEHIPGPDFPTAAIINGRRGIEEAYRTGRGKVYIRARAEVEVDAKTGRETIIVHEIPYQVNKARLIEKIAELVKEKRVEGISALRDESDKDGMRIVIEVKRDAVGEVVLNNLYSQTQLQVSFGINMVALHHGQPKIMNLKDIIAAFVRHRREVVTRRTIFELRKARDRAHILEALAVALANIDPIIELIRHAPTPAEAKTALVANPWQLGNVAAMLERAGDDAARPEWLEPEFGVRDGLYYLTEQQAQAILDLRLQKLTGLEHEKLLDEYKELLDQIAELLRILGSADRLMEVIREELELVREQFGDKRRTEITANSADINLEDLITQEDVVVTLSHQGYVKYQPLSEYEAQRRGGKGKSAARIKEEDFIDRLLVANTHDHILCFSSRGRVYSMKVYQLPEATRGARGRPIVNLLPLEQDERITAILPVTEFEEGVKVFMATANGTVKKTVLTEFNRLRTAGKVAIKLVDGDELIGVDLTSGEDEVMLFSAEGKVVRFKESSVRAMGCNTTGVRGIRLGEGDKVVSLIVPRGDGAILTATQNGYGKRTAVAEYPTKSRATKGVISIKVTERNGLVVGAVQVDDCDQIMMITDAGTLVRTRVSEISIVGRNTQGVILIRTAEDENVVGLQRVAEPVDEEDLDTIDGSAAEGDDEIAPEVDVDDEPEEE
# Protocol: SDFQ HITS primary assay using pAB1_FL905 was performed in 2 μL of (1×DNA gyrase buffer: 20 mM Tris-Acetate pH 7.9, 50 mM KAc, 10 mM MgCl2, 2 mM DTT, 1 mM ATP, 0.1 mg/ml. BSA). […] 3) Spun plate at 800 rpm for 30 seconds. […] SDFQ HTS secondary assay using pAB1_FL924 was performed in 2 μL of (1×DNA gyrase buffer: 20 mM Tris-Acetate pHI 7.9, 50 mM KAc, 10 mM MgCl2, 2 mM DTT, 1 mM ATP, 0.1 mg/mL BSA). […] 3) Spun plate at 800 rpm for 30 seconds.
# E. coli DNA gyrase [2] = target: T1, E. coli DNA gyrase; assay: DNA gyrase mediated DNA cleavage assay; assay type: biochemical; settings: plasmid pBR322
# Protocol: 250 ng of supercoiled pBR322 plasmid were incubated with 50 nM of E. coli DNA gyrase in reactions containing 35 mM Tris-HCl, 24 mM KCl, 4 mM MgCl2, 2 mM DTT, 0.1 mg/mL BSA, 6.5% glycerol, and 1.75 mM ATP, in presence of 200 μM of compounds, at 37° C. for 15 min. Then, 0.2% (w/v) of SDS and 0.1 mg/mL proteinase K were added, and samples were incubated at 37° C. for 1 h. […] Samples were examined by electrophoresis in 1% w/v agarose gel containing 0.5 μg/mL ethidium bromide and photographed under UV light.
# S. aureus (ATCC 14775) = assay: Minimum inhibitory concentration, S. aureus; assay type: cell-based; settings: for MIC: Staphylococcus aureus
# Protocol: as §1
# MRSA (ATCC BAA44) = assay: microbe, parasite or virus in culture; assay type: cell-based, S. aureus; settings: for MIC: Staphylococcus aureus
# Protocol: as §1
# B. subtilis (ATCC 6633) = assay: Minimum inhibitory concentration, B. subtilis; assay type: cell-based; settings: for MIC: Bacillus subtilis, ATCC6633, Tables 3a-3c
# Protocol: as §1
# Mtb DNA gyrase = Mtb DNA gyrase (Mycobacterium tuberculosis, UniProt P9WG45+P9WG47); assay: Mtb DNA gyrase inhibition; assay type: biochemical
# Mtb DNA gyrase, sequence (P9WG45 whole entry): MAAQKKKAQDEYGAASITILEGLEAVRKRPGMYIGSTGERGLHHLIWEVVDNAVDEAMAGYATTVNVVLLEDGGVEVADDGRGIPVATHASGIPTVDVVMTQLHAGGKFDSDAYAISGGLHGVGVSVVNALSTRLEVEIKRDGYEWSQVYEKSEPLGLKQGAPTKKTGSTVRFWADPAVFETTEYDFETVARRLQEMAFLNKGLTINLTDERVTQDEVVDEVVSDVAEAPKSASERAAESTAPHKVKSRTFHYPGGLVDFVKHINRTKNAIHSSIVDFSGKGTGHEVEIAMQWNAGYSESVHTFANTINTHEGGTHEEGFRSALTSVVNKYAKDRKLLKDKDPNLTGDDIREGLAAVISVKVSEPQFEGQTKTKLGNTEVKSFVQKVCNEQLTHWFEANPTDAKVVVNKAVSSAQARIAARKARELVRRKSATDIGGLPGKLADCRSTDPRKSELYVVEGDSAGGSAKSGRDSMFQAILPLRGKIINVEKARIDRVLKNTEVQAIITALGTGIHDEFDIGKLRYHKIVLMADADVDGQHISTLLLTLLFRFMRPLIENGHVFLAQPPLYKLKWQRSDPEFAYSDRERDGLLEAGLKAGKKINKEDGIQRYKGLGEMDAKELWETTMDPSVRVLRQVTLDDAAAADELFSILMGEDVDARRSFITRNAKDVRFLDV
# Mtb DNA gyrase, sequence (P9WG47 whole entry): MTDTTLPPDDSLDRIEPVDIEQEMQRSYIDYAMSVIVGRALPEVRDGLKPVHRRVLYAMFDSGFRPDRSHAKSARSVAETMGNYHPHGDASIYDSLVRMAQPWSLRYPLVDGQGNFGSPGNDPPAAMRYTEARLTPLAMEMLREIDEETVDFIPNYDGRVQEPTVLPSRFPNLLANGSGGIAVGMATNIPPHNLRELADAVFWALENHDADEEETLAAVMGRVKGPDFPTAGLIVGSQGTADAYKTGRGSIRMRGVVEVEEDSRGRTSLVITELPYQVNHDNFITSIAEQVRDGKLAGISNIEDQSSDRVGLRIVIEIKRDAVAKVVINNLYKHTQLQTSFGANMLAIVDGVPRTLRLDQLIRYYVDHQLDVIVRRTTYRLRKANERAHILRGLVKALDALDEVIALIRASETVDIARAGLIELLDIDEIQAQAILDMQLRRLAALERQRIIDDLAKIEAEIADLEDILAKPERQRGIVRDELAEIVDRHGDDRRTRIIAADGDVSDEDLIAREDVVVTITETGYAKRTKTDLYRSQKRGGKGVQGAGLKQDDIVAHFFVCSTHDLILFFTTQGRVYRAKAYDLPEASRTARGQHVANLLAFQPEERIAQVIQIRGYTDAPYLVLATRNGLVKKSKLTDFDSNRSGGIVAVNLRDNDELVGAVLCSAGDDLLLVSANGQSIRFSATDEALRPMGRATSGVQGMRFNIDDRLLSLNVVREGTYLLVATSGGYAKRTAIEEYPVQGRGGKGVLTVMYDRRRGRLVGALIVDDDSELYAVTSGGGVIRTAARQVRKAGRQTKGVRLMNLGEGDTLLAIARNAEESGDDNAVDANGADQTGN
# E. coli DNA gyrase [3] = target: T1, E. coli DNA gyrase; assay: E. coli DNA gyrase inhibition (agarose gel-based and/or SDFQ-based, not specified per value); assay type: biochemical
# E. coli DNA gyrase [4] = target: T1, E. coli DNA gyrase; assay: Agarose gel-based DNA gyrase inhibition assays; assay type: biochemical; settings: 200 μM of compounds
# Protocol: 100 ng of DNA gyrase was used to supercoil the rx pAB1 in the presence of different concentrations of a gyrase inhibitor. […] Samples were analyzed by electrophoresis in 1% w/v agarose gels followed by ethidium bromide staining and photographed under UV light.
# E. coli DNA gyrase [5] = target: T1, E. coli DNA gyrase; assay: E. coli DNA gyrase ATPase assays; assay type: biochemical
# Protocol: E. coli DNA gyrase ATPase assays were performed in 60 μl, of 1×gyrase ATPase buffer (10 mM Tris.HCl (pH 7.5), 0.2 mM EDTA, 1 mM magnesium chloride, 1 mM DTT, and 2% (w/v) glycerol) containing 50 nM E. coli DNA gyrase, 200 ng rx pAB1, 0.8 mM Phosphoenol pyruvate, 1.2 units of Pyruvate kinase, 1.7 units of lactate dehydrogenase, and 0.4 mM of NADH at 37° C. After the reaction mixtures are incubated on ice for 5 minutes, 2 mM of ATP is added to initiate the reaction. Absorbance at OD340 nm is monitored for up to 30 minutes at 37° C. in a spectrophotometer.
# [6] = ATCC14775, Tables 3a-3c, read-out: Minimum Inhibitory Concentration S. aureus
# [7] = read-out: Minimum Inhibitory Concentration S. aureus MRSA
# [8] = Table 2 values, read-out: IC50 ( ≤15 μM) IC50
compound,measurement,setting,value
Cc1c(CCC(=O)O)c(=O)oc2c(C)c3occ(-c4ccc5ccccc5c4)c3cc12 [Compound 124],cytotoxicity,HepG2,no cytotoxicity evident
same,activity against Mtb,Mtb,most active for Mtb
same,cytotoxicity,J774,no cytotoxicity evident
same,MIC,E. coli (ATCC 25922),> 200 µM
same,MIC,E. coli imp,> 200 µM
CCn1cc(C(=O)O)c(=O)c2cc(F)c(N3CCNC(C)C3)c(F)c21 (centres unmarked) [lomefloxacin],inhibition at 5 µM,E. coli DNA gyrase [1],> 40%
"O=C1C=C(NCCc2cc(Br)c(O)c(Br)c2)C(=O)c2ncccc21 [Compound 232, 7-((2-(3,5-Dibromo-4-hydroxyphenyl)ethyl)amino)-5,8-quinolinedione]",DNA gyrase-mediated double stranded DNA breaks / DNA nicking,E. coli DNA gyrase [2],cause DNA nicking
O=S(=O)(Cl)c1ccc(Oc2ccc(S(=O)(=O)Cl)cc2)cc1 [NSC212],IC50,HepG2,> 200 µM
same,% inhibition (20 μM),"Mtb; 20 μM, Table 6",84.6%
same,IC50,J774,> 200 µM
"CC(OC(=O)c1cc(O)c2ccccc2c1O)C(=O)Nc1ccc(C(N)=O)cc1 (centres unmarked) [Compound 40, 1-[(4-carbamoylphenyl)carbamoyl]ethyl 1,4-dihydroxynaphthalene-2-carboxylate]",MIC,S. aureus (ATCC 14775); [6],> 200 µM
same,MIC,MRSA (ATCC BAA44); [7],> 200 µM
same,anti Bacillus subtilis activities at,B. subtilis (ATCC 6633),39 µg/mL
same,MIC,E. coli (ATCC 25922),> 200 µM
same,DNA gyrase-mediated double stranded DNA breaks / DNA nicking,E. coli DNA gyrase [2],causes DNA gyrase-mediated double stranded DNA breaks and DNA nicking; also recorded: causes gyrase-mediated DNA double-stranded breaks and single-stranded nicks; also recorded: bacterial DNA gyrase poison
same,MIC,E. coli imp,> 200 µM
"O=C(O)CCNc1ccc(NCCC(=O)O)c2c1C(=O)c1ccccc1C2=O [Compound 173, 3-({4-[(2-carboxyethyl)amino]-9,10-dioxo-9,10-dihydroanthracen-1-yl}amino)propanoic acid]",DNA gyrase-mediated double stranded DNA breaks / DNA nicking,E. coli DNA gyrase [2],cause DNA nicking
Biphenyl gallate,MIC (μg/ml) S. aureus ATCC 14775,S. aureus (ATCC 14775); Table 7,16 µg/mL
same,MIC (μg/ml) S. aureus (MRSA) ATCC BAA44,MRSA (ATCC BAA44); Table 7,16 µg/mL
same,MIC (μg/ml) B. subtilis ATCC 6633,B. subtilis (ATCC 6633); Table 7,16 µg/mL
same,MIC (μg/ml) E. coli ATCC 25922,E. coli (ATCC 25922); Table 7,517.29 µg/mL
same,MIC (μg/ml) E. coli imp,E. coli imp; Table 7,36.43 µg/mL
Cc1c(CCC(=O)O)c(=O)oc2c(C)c3occ(-c4ccc(-c5ccccc5)cc4)c3cc12 [Compound 119],cytotoxicity,HepG2,no cytotoxicity evident
same,activity against Mtb,Mtb,most active for Mtb
same,MIC,B. subtilis (ATCC 6633),> 200 µM
same,cytotoxicity,J774,no cytotoxicity evident
same,MIC,E. coli (ATCC 25922),> 200 µM
same,MIC,E. coli imp,> 200 µM
Cc1c(CCC(=O)O)c(=O)oc2cc3occ(-c4ccc(Br)cc4)c3cc12 [Compound 46],MIC,"S. aureus (ATCC 14775); ATCC14775, Table 5, read-out: MIC (μM) SA",> 200 µM
same,MIC,S. aureus (ATCC 14775); [6],> 200 µM
same,IC50,Mtb DNA gyrase; Table 5,75 µM
same,cytotoxicity,HepG2,no cytotoxicity evident
same,IC50,"HepG2; Homo sapiens, HepG2",> 200 µM
same,activity against Mtb,Mtb,most active for Mtb
same,inhibition at 20 µM,"Mtb; Mycobacterium tuberculosis, read-out: % inhibition (20 μM), 20 μM, Table 6",82.3%
same,IC50,E. coli DNA gyrase [3],11.4 µM
same,inhibition of E. coli DNA gyrase activities,E. coli DNA gyrase [3],potent bacterial DNA gyrase inhibitors
same,IC50,E. coli DNA gyrase [3]; [8],11.2 µM
same,MIC,MRSA (ATCC BAA44); read-out: MIC (μM) MRSA,> 200 µM
same,MIC,MRSA (ATCC BAA44); [7],> 200 µM
same,MIC,B. subtilis (ATCC 6633),6.25 µM
same,cytotoxicity,J774,no cytotoxicity evident
same,IC50,"J774; Mus musculus, J774",> 200 µM
same,MIC,E. coli (ATCC 25922),> 200 µM
same,inhibition of E. coli DNA gyrase activities,E. coli DNA gyrase [4],completely inhibited
same,MIC,E. coli imp,6.25 µM
Sc1cccc2c(S)cccc12 [NSC229],IC50,HepG2,> 200 µM
same,% inhibition (20 μM),"Mtb; 20 μM, Table 6",99.3%
same,IC50,J774,> 200 µM
Cc1c(CCC(=O)O)c(=O)oc2c(C)c3occ(-c4ccc(Br)cc4)c3cc12 [Compound 48],% Mtb inhibition,Mtb,38.6%
same,IC50,E. coli DNA gyrase [3]; [8],4.28 µM
same,MIC,B. subtilis (ATCC 6633),> 200 µM
same,mode of inhibition (ATP competitive),E. coli DNA gyrase [5],ATP competitive inhibitor
same,MIC,E. coli (ATCC 25922),> 200 µM
same,MIC,E. coli imp,> 200 µM
Cc1coc2cc3oc(=O)c(CCC(=O)O)c(C)c3cc12 [Compound 122],MIC,S. aureus (ATCC 14775); [6],200 µM
same,inhibition of Mtb DNA gyrase activities,Mtb DNA gyrase,All psoralen derivatives inhibited E. coli and Mtb DNA gyrase activities except compounds 118 and 122
same,% Mtb inhibition,Mtb,15.7%
same,inhibition of E. coli DNA gyrase activities,E. coli DNA gyrase [3],All psoralen derivatives inhibited E. coli and Mtb DNA gyrase activities except compounds 118 and 122
same,MIC,MRSA (ATCC BAA44); [7],200 µM
"CNC(=O)[C@H]1O[C@@H](n2cnc3c(NCc4ccc(N)cc4)ncnc32)[C@H](O)[C@@H]1O [AB-MECA, reference compound]",inhibition of Mtb DNA gyrase activities,Mtb DNA gyrase,did not inhibit
Cc1c(C)c2cc3c(-c4ccc(Br)cc4)coc3c(C)c2oc1=O [Compound 118],MIC,"S. aureus (ATCC 14775); ATCC14775, read-out: Minimum Inhibitory Concentration S. aureus",200 µM
same,inhibition of Mtb DNA gyrase activities,Mtb DNA gyrase,All psoralen derivatives inhibited E. coli and Mtb DNA gyrase activities except compounds 118 and 122
same,% Mtb inhibition,Mtb,21.8%
same,inhibition of E. coli DNA gyrase activities,E. coli DNA gyrase [3],All psoralen derivatives inhibited E. coli and Mtb DNA gyrase activities except compounds 118 and 122
same,MIC,MRSA (ATCC BAA44); [7],200 µM
CNC(=O)[C@H]1O[C@@H](n2cnc3c(NCc4cccc(I)c4)ncnc32)[C@H](O)[C@@H]1O [IB-MECA],inhibition of Mtb DNA gyrase activities,Mtb DNA gyrase,did not inhibit
same,inhibition of the ATPase activities of E. coli DNA gyrase,E. coli DNA gyrase [5],inhibition of the ATPase activities
same,mode of inhibition (ATP competitive),E. coli DNA gyrase [5],ATP competitive inhibitors
"CNC(=O)[C@H]1O[C@@H](n2cnc3c(NCc4cccc(I)c4)nc(Cl)nc32)[C@H](O)[C@@H]1O [chloro-IB-MECA, reference compound]",inhibition of Mtb DNA gyrase activities,Mtb DNA gyrase,did not inhibit
same,inhibition of the ATPase activities of E. coli DNA gyrase,E. coli DNA gyrase [5],inhibition of the ATPase activities
same,mode of inhibition (ATP competitive),E. coli DNA gyrase [5],ATP competitive inhibitors
same,DNA gyrase-mediated double stranded DNA breaks / DNA nicking,E. coli DNA gyrase [2],did not DNA double stranded DNA 10 breaks
Cc1c(CCC(=O)O)c(=O)oc2c(C)c3occ(-c4ccc(Cl)cc4)c3cc12 [Compound 120],% Mtb inhibition,Mtb,18.7%
same,MIC,B. subtilis (ATCC 6633),> 200 µM
same,MIC,E. coli (ATCC 25922),> 200 µM
same,MIC,E. coli imp,> 200 µM
